This is an account of results in patent US20120252796A1, “COMPOUNDS FOR THE TREATMENT OF DYSLIPIDEMIA AND RELATED DISEASES” (priority 2009, published 2012).

The target in this test is PCSK9 (Homo sapiens, UniProt Q8NBP7). Put plainly: PCSK9-LDLR in vitro Binding Assay (ELISA). To be noted: for inhibition at 5 µM: Concentration 5 μM. The procedure: The PCSK9-LDLR in vitro Binding Assay is a quantitative solid phase binding assay between PCSK9 and recombinant LDLR. Plates were pre-coated with a recombinant LDLR-AB domain, which binds PCSK9. Test compound at different concentration was added to the PCSK9 and added to LDLR immobilized on the wells. The amount of bound PCSK9 is measured by binding it with biotinylated anti-His-tag monoclonal antibody, followed by binding with horseradish peroxidase conjugated streptavidin substrate. The color was quantified by ELISA reader at […] which reflects the relative amount of PCSK9 that binds to LDLR in presence and absence of the inhibitor. EC50 values were calculated by nonlinear regression analysis using graph pad prism software. Each concentration point represents values in duplicates.
For orientation: ELISA stands for enzyme-linked immunosorbent assay.

Sequence of PCSK9 (Q8NBP7 153-692): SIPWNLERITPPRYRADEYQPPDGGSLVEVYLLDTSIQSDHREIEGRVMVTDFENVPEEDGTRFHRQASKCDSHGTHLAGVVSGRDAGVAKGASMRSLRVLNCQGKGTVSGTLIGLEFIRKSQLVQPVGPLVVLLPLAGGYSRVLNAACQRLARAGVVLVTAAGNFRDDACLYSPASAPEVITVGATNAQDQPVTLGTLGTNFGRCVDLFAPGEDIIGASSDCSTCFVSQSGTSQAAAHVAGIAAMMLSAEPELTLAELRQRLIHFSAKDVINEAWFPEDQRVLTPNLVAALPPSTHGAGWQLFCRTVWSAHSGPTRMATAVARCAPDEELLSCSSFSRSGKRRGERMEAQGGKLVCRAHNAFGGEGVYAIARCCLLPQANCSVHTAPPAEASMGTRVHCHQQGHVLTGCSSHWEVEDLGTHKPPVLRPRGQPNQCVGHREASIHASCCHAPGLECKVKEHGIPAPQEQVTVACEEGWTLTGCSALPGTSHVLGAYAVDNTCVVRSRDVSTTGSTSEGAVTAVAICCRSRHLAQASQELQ
Sequence of PCSK9 (Q8NBP7 31-152 partner limits assumed): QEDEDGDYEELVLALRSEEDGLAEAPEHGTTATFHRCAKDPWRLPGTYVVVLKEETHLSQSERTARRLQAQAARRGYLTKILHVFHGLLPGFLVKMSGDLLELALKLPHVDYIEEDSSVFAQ

In the case of `Cc1oc(-c2ccccc2)nc1CCC1COC(C)(C(=O)NCC(=O)N2CCSCC2)OC1` (centres unmarked) [Example 52, 2-methyl-5-c-(2-(5-methyl-2-phenyloxazol-4-yl)ethyl)-N-(2-oxo-2-thiomorpholinoethyl)-1,3-dioxane-2-carboxamide], the “% Inhibition PCSK9” value worked out at 20% (Concentration 10 μM) and 32% (Concentration 100 μM).

In the case of `CC(=O)C(Cc1ccccc1)NC(=O)C1(C)OCC(CCc2nc(-c3ccccc3)oc2C)CO1` (centres unmarked) [Example 54, 2-methyl-5-(2-(5-methyl-2-phenyloxazol-4-yl)ethyl)-N-(3-oxo-1-phenylbutan-2-yl)-1,3-dioxane-2-carboxamide], the inhibition at 10 µM (Concentration 10 μM) turned out to be 21%. Also, testing at 100 µM (Concentration 100 μM) gave an inhibition of 29%.

For the compound `CC(=O)C(Cc1ccccc1)NC(=O)CNC(=O)C1(C)OCC(CCc2nc(-c3ccccc3)oc2C)CO1` (centres unmarked) [Example 55, 2-methyl-5-(2-(5-methyl-2-phenyloxazol-4-yl)ethyl)-N-(2-oxo-2-((3-oxo-1-phenylbutan-2-yl)amino)ethyl)-1,3-dioxane-2-carboxamide], under “Concentration 10 μM”, the inhibition at 10 µM turned out to be 23%. Under “Concentration 100 μM”, this compound registered an inhibition at 100 µM of 30%.

Turning to `Cc1ccc(-c2nc(CC3COC(C)(C(=O)NOCc4ccccc4)OC3)c(C)o2)cc1` (centres unmarked) [Example 56, N-benzyloxy-2-methyl-5-((5-methyl-2-(p-tolyl)oxazol-4-yl)methyl)-1,3-dioxane-2-carboxamide], at 5 µM the inhibition was 6%. The inhibition at 10 µM (Concentration 10 μM) amounted to 17%.

Consider `Cc1ccc(-c2nc(CC3COC(C)(C(=O)NO)OC3)c(C)o2)cc1` (centres unmarked) [Example 60, N-hydroxy-2-methyl-5-c-((5-methyl-2-(p-tolyl)oxazol-4-yl)methyl)-1,3-dioxane-2-carboxamide], for which the “% Inhibition PCSK9” value is 28% (Concentration 1 μM); 26% (Concentration 10 μM, 10 µM); 70% (Concentration 100 μM, 100 µM).

Turning to `Cc1ccc(-c2nc(CC3COC(C)(C(=O)NO)OC3)c(C)o2)cc1` (centres unmarked) [Example 61, N-hydroxy-2-methyl-5-t-((5-methyl-2-(p-tolyl)oxazol-4-yl)methyl)-1,3-dioxane-2-carboxamide], the “% Inhibition PCSK9” value runs as follows: (Concentration 10 μM, 10 µM) 21%; (Concentration 100 μM, 100 µM) 32%.

`Cc1ccc(-c2nc(CC3COC(C)(C(=O)NCC4CCOCC4)OC3)c(C)o2)cc1` (centres unmarked) [Example 62, 2-methyl-5-((5-methyl-2-(p-tolyl)oxazol-4-yl)methyl)-N—((tetrahydro-2H-pyran-4-yl)methyl)-1,3-dioxane-2-carboxamide]: at 0.1 µM the inhibition (Concentration 0.1 μM) was 17%. The inhibition at 1 µM (Concentration 1 μM) came out at 21%. Besides, the inhibition at 10 µM (Concentration 10 μM) is 14%. The inhibition at 100 µM (Concentration 100 μM) was determined as 41%.

The compound `Cc1ccc(-c2nc(CC3COC(C)(C(=O)N4CCOCC4)OC3)c(C)o2)cc1` (centres unmarked) [Example 65, (2-methyl-5-((5-methyl-2-(p-tolyl)oxazol-4-yl)methyl)-1,3-dioxan-2-yl)(morpholino)methanone] had an inhibition at 1 µM (Concentration 1 μM) of 11%. For the setting “Concentration 10 μM”, this compound returned an inhibition at 10 µM of 26%. Besides, the inhibition at 100 µM (Concentration 100 μM) was determined as 35%.

With `Cc1ccc(-c2nc(CC3COC(C)(C(=O)N4CCOCC4)OC3)c(C)o2)cc1` (centres unmarked) [Example 66, (2-methyl-5-c-((5-methyl-2-(p-tolyl)oxazol-4-yl)methyl)-1,3-dioxan-2-yl)(morpholino)methanone], the “% Inhibition PCSK9” value amounted to 23% (Concentration 1 μM, 1 µM); 25% (Concentration 10 μM, 10 µM); 31% (Concentration 100 μM, 100 µM).

As to `Cc1ccc(-c2nc(CC3COC(C)(C(=O)N4CCOCC4)OC3)c(C)o2)cc1` (centres unmarked) [Example 67, (2-methyl-5-t-((5-methyl-2-(p-tolyl)oxazol-4-yl)methyl)-1,3-dioxan-2-yl)(morpholino)methanone], the “% Inhibition PCSK9” value (Concentration 1 μM, 1 µM) is given as 3%; the “% Inhibition PCSK9” value (Concentration 10 μM, 10 µM) worked out at 21%; the “% Inhibition PCSK9” value (Concentration 100 μM, 100 µM) amounted to 25%.

As to `Cc1oc(C(C)(C)C)nc1CC1COC(C)(C(=O)NO)OC1` (centres unmarked) [Example 72, 5-((2-(tert-butyl)-5-methyloxazol-4-yl)methyl)-N-hydroxy-2-methyl-1,3-dioxane-2-carboxamide], the inhibition at 5 µM was found to be 11%. Under “Concentration 100 μM”, this compound displayed an inhibition at 100 µM of 25%. Moreover, where the note is “Concentration 110 μM”, the inhibition at 110 µM worked out at 20%.

As to `Cc1ccc(-c2nc(CC3COC(C)(C(=O)NCC4CCOCC4)OC3)c(C)o2)s1` (centres unmarked) [Example 74, 2-methyl-5-c-((5-methyl-2-(5-methylthiophen-2-yl)oxazol-4-yl)methyl)-N—((tetrahydro-2H-pyran-4-yl)methyl)-1,3-dioxane-2-carboxamide], the “% Inhibition PCSK9” value is 4% (Concentration 1 μM, 1 µM); 15% (Concentration 10 μM, 10 µM); 27% (Concentration 100 μM, 100 µM).

As to `Cc1ccc(-c2nc(CC3COC(C)(C(=O)NCC4CCOCC4)OC3)c(C)o2)s1` (centres unmarked) [Example 75, 2-methyl-5-t-((5-methyl-2-(5-methylthiophen-2-yl)oxazol-4-yl)methyl)-N—((tetrahydro-2H-pyran-4-yl)methyl)-1,3-dioxane-2-carboxamide], the “% Inhibition PCSK9” value (Concentration 1 μM, 1 µM) amounted to 15%; the “% Inhibition PCSK9” value (Concentration 10 μM, 10 µM) is on record as 11%; the “% Inhibition PCSK9” value (Concentration 100 μM, 100 µM) was determined as 20%.

Take `Cc1ccc(-c2nc(CC3COC(C)(C(=O)N4CCOCC4)OC3)c(C)o2)s1` (centres unmarked) [Example 76]: the “% Inhibition PCSK9” value by setting is: (Concentration 1 μM) 6%; (Concentration 10 μM, 10 µM) 17%; (Concentration 100 μM, 100 µM) 27%.

In the case of `Cc1ccc(-c2nc(CC3COC(C)(C(=O)N4CCOCC4)OC3)c(C)o2)s1` (centres unmarked) [Example 77], the “% Inhibition PCSK9” value turned out to be 14% (Concentration 10 μM, 10 µM) and 16% (Concentration 100 μM, 100 µM).

As to `Cc1oc(-c2ccncc2)nc1CC1COC(C)(C(=O)NO)OC1` (centres unmarked) [Example 81, N-hydroxy-2-methyl-5-t-((5-methyl-2-(pyridin-4-yl)oxazol-4-yl)methyl)-1,3-dioxane-2-carboxamide], the “% Inhibition PCSK9” value (Concentration 1 μM, 1 µM) is 7%; the “% Inhibition PCSK9” value (Concentration 10 μM, 10 µM) is reported as 12%; the “% Inhibition PCSK9” value (Concentration 100 μM, 100 µM) came to 23%.

Regarding `Cc1oc(-c2ccncc2)nc1CC1COC(C)(C(=O)N2CCOCC2)OC1` (centres unmarked) [Example 82, (2-methyl-5-c-((5-methyl-2-(pyridin-4-yl)oxazol-4-yl)methyl)-1,3-dioxan-2-yl)(morpholino)methanone], the “% Inhibition PCSK9” value runs as follows: (Concentration 1 μM, 1 µM) 13%; (Concentration 10 μM, 10 µM) 20%; (Concentration 100 μM) 42%.

Turning to `Cc1oc(-c2ccncc2)nc1CC1COC(C)(C(=O)N2CCOCC2)OC1` (centres unmarked) [Example 83, (2-methyl-5-t-((5-methyl-2-(pyridin-4-yl)oxazol-4-yl)methyl)-1,3-dioxan-2-yl)(morpholino)methanone], the “% Inhibition PCSK9” value runs as follows: (Concentration 1 μM, 1 µM) 20%; (Concentration 10 μM, 10 µM) 25%; (Concentration 100 μM) 42%.

As for `Cc1oc(-c2ccncc2)nc1CC1COC(C)(C(=O)NCC(=O)N2CCOCC2)OC1` (centres unmarked) [Example 87, 2-methyl-5-t-((5-methyl-2-(pyridin-4-yl)oxazol-4-yl)methyl)-N-(2-morpholino-2-oxoethyl)-1,3-dioxane-2-carboxamide], the “% Inhibition PCSK9” value (Concentration 10 μM, 10 µM) worked out at 12% and the “% Inhibition PCSK9” value (Concentration 100 μM, 100 µM) came out at 7%.

As to `Cc1oc(-c2ccncc2)nc1CC1COC(C)(C(=O)NCC(=O)NCC2CCOCC2)OC1` (centres unmarked) [Example 88, 2-methyl-5-c-((5-methyl-2-(pyridin-4-yl)oxazol-4-yl)methyl)-N-(2-oxo-2-(((tetrahydro-2H-pyran-4-yl)methyl)amino)ethyl)-1,3-dioxane-2-carboxamide], the “% Inhibition PCSK9” value is, setting by setting: (Concentration 10 μM, 10 µM) 10%; (Concentration 100 μM, 100 µM) 15%.

As for `Cc1oc(-c2ccncc2)nc1CC1COC(C)(C(=O)NCC(=O)NCC2CCOCC2)OC1` (centres unmarked) [Example 89, 2-methyl-5-t-((5-methyl-2-(pyridin-4-yl)oxazol-4-yl)methyl)-N-(2-oxo-2-(((tetrahydro-2H-pyran-4-yl)methyl)amino)ethyl)-1,3-dioxane-2-carboxamide], the “% Inhibition PCSK9” value is, setting by setting: (Concentration 10 μM, 10 µM) 7%; (Concentration 100 μM, 100 µM) 10%.

As for `CC1(C(=O)NO)OCC(CCCn2c3ccccc3c3ccccc32)CO1` (centres unmarked) [Example 96, 5-c-(3-(9H-carbazol-9-yl)propyl)-N-hydroxy-2-methyl-1,3-dioxane-2-carboxamide], the “% Inhibition PCSK9” value (Concentration 10 μM) is given as 10%.

`Cc1ccc(-n2nc(C(C)(C)C)cc2CC2COC(C)(C(=O)NO)OC2)cc1` (centres unmarked) [Example 99, N-(hydroxy)-5-c-((3-(tert-butyl)-1-(p-tolyl)-1H-pyrazol-5-yl)methyl)-2-methyl-1,3-dioxane-2-carboxamide]: the “% Inhibition PCSK9” value by setting is: (Concentration 10 μM) 5%; (Concentration 100 μM) 32%.

Turning to `Cc1ccc(-n2nc(C(C)(C)C)cc2CC2COC(C)(C(=O)N3CCN(C)CC3)OC2)cc1` (centres unmarked) [Example 105, (5-((3-(tert-butyl)-1-(p-tolyl)-1H-pyrazol-5-yl)methyl)-2-methyl-1,3-dioxan-2-yl)(4-methylpiperazin-1-yl)methanone], the inhibition at 10 µM (Concentration 10 μM) stood at 10%. Also, testing at 100 µM (Concentration 100 μM) gave an inhibition of 40%.

“(2-methyl-5-c-(2-(5-methyl-2-phenyloxazol-4-yl)ethyl)-1,3-dioxan-2-yl)(piperidin-1-yl)methanone [Example 44]”: the “% Inhibition PCSK9” value by setting is: (10 µM) 14%; (100 µM) 25%.

A word on the inhibition: it is the share of the control response that was lost under treatment. A lower inhibition goes with a response near the control.
